The record followed here is US8242128B2, “1,3-benzoxazolyl derivatives as kinase inhibitors” (Merck Patent GmbH, priority 2003, dated 2012).

The target in one experiment is TIE-2 (Homo sapiens, UniProt Q02763). Description: Inhibition of TIE-2 (flashplate kinase assay, poly(Glu, Tyr) phosphorylation, 33P-ATP). It is filed as biochemical. As for the experimental part:
The TIE-2 tests can be carried out, for example, analogously to the methods indicated in WO 02/44156.
The assay determines the inhibiting activity of the substances to be tested in the phosphorylation of the substrate poly(Glu, Tyr) by Tie-2 kinase in the presence of radioactive ^33P-ATP. The phosphorylated substrate binds to the surface of a “flashplate” microtitre plate during the incubation time. After removal of the reaction mixture, the microtitre plate is washed a number of times and the radioactivity on its surface is subsequently measured. An inhibiting effect of the substances to be measured results in lower radioactivity compared with an undisturbed enzymatic reaction.

A further experiment concerns RAF. Description: Inhibition of RAF. It is filed as biochemical.

The structures appear in SMILES notation.

Sequence of TIE-2 (Q02763 23-1124, species assumed): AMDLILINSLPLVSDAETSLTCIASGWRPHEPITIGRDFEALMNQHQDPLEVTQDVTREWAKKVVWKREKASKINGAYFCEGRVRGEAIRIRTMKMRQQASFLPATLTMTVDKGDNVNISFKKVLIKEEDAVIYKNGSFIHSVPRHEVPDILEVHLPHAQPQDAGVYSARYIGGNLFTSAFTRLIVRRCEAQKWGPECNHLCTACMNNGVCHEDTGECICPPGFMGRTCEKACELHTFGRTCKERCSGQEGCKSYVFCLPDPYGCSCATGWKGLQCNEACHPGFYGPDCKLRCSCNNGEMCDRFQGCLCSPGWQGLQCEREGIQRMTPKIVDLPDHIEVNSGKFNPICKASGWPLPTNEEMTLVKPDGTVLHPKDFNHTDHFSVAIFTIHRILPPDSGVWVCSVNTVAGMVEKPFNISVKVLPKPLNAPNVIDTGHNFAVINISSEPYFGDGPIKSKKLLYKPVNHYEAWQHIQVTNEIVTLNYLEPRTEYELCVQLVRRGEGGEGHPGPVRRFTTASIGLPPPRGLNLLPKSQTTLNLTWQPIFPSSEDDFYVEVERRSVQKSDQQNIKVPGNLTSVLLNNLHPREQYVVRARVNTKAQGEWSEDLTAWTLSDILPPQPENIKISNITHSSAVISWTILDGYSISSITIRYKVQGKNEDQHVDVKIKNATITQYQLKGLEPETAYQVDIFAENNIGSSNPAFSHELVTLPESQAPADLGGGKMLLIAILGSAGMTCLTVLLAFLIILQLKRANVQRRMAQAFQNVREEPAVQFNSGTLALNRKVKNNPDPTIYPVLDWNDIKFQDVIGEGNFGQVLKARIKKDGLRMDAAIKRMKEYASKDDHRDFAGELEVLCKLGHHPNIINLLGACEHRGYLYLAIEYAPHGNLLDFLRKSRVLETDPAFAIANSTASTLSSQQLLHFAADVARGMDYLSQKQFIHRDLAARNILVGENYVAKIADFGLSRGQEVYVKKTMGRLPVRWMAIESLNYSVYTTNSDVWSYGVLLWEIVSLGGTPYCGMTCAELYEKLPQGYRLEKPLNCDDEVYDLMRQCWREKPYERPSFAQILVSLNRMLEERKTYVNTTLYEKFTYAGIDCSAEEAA

By IC50 is commonly meant the concentration that gives 50% inhibition. Lower therefore signals inhibition by little substance. As for `O=[N+]([O-])c1cc(Cl)cc2nc(Nc3ccc(Sc4ccncc4)cc3)oc12` [(5-Chloro-7-nitrobenzoxazol-2-yl)-[4-(pyridin-4-ylsulfanyl)phenyl]amine], the figures for the IC50 against TIE-2 and with RAF were 310 nM and greater than 1000 nM, respectively.
